Experimental data as given in ChEMBL document CHEMBL1201862, “PubChem BioAssay data set” (2004).
Calls of active or inactive are those of the source.

Tests used:
[1] = biological target: T1, Cytochrome P450 1A2 (Homo sapiens, UniProt P05177);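 note: PubChem cytochrome P450 panel assay, CYP1A2 panel member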
T1 sequence (P05177 whole entry): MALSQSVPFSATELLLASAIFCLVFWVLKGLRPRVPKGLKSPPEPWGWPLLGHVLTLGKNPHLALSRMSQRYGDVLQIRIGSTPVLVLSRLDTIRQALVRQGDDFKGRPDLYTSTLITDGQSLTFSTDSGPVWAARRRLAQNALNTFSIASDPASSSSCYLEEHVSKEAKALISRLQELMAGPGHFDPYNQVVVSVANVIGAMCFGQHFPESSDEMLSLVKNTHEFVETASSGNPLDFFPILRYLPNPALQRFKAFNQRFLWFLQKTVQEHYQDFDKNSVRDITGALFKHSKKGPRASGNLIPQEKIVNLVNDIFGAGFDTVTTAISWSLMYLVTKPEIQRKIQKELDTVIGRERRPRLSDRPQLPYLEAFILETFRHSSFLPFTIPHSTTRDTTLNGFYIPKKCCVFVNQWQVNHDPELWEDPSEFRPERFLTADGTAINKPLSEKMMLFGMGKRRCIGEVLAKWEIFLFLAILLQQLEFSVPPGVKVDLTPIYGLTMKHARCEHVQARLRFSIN

[2] = biological target: Cytochrome P450 3A4 (Homo sapiens, UniProt P08684);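 note: CYP3A4 tested as one member of a cytochrome P450 panel screen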
Cytochrome P450 3A4, sequence (P08684 whole entry): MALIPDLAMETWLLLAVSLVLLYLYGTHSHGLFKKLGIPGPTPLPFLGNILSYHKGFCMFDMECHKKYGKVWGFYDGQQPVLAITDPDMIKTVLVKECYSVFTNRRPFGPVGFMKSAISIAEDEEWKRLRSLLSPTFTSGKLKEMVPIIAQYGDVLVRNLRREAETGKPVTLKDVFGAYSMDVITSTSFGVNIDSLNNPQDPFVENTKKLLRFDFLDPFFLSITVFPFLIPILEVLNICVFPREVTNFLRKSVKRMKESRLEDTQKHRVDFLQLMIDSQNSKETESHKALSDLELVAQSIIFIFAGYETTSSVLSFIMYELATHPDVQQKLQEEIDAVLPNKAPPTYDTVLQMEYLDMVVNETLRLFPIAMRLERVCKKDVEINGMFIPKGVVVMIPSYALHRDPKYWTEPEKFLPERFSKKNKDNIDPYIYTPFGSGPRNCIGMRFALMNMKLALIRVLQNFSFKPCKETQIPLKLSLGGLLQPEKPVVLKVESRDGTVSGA

[3] = biological target: Cytochrome P450 2C9 (Homo sapiens, UniProt P11712)
Cytochrome P450 2C9, sequence (P11712 whole entry): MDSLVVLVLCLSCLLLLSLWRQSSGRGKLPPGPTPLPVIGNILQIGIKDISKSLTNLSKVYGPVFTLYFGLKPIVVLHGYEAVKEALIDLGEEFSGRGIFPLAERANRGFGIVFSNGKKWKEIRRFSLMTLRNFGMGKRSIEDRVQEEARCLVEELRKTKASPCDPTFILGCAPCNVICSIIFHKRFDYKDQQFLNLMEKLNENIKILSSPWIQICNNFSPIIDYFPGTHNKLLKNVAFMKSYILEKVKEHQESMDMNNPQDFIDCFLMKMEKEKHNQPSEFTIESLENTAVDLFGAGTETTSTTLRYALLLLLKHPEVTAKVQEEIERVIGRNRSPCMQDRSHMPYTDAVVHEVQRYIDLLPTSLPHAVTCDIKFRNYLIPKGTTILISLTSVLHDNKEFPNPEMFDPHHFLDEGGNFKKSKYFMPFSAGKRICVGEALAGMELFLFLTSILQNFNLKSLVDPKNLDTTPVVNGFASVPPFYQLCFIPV

[4] = biological target: Luciferin 4-monooxygenase (Photinus pyralis, UniProt P08659); assay: firefly luciferase enzyme inhibitors, dose response, biochemical, luminescence (AID 1891)
Luciferin 4-monooxygenase, sequence (P08659 whole entry): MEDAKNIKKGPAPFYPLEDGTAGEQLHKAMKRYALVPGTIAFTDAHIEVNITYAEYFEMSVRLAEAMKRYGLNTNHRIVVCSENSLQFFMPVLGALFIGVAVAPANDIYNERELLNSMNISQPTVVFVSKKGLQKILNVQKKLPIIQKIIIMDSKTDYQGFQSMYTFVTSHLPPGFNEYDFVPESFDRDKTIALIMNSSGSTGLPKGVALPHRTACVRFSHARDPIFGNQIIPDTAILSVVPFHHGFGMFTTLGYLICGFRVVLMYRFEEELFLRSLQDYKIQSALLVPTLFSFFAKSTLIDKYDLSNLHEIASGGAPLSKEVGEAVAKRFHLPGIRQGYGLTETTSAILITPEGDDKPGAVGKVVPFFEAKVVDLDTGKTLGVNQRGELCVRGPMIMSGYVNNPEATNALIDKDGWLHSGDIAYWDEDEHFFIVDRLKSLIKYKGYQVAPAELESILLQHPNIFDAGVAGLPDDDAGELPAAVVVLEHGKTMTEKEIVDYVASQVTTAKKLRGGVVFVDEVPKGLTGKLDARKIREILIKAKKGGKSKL

[5] = Luminescence Cell-Based Dose Confirmation HTS to Identify Inhibitors of Platelet Dense Granule Release. [Related pubchem assays: 1663 (Primary HTS), 1678 (Summary of Project)]; format: functional
[6] = biological target: Cytochrome P450 2D6 (Homo sapiens, UniProt P10635);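 note: CYP2D6 member of a cytochrome P450 panel assay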
Cytochrome P450 2D6, sequence (P10635 whole entry): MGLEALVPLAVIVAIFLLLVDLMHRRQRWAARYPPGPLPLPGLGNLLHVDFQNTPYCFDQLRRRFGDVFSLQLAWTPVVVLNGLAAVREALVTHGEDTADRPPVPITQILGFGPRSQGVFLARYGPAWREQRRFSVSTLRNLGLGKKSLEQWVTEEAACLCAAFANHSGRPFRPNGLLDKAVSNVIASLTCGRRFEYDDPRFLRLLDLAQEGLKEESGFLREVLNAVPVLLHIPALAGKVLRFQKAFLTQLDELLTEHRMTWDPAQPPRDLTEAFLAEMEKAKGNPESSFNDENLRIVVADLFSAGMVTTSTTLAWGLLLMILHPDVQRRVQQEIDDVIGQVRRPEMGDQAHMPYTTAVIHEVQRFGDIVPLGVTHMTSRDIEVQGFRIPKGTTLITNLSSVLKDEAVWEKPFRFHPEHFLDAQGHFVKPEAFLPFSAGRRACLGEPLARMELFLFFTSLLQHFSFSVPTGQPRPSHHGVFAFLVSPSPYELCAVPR

[7] = biological target: T2, Rac GTPase-activating protein 1 (Homo sapiens, UniProt Q9H0H5); assay: MgcRacGAP GTPase-activating activity inhibitors, confirmation, biochemical, ADP Hunter fluorescence, primary and confirmatory (AID 624330); format: functional
T2 sequence (Q9H0H5 whole entry): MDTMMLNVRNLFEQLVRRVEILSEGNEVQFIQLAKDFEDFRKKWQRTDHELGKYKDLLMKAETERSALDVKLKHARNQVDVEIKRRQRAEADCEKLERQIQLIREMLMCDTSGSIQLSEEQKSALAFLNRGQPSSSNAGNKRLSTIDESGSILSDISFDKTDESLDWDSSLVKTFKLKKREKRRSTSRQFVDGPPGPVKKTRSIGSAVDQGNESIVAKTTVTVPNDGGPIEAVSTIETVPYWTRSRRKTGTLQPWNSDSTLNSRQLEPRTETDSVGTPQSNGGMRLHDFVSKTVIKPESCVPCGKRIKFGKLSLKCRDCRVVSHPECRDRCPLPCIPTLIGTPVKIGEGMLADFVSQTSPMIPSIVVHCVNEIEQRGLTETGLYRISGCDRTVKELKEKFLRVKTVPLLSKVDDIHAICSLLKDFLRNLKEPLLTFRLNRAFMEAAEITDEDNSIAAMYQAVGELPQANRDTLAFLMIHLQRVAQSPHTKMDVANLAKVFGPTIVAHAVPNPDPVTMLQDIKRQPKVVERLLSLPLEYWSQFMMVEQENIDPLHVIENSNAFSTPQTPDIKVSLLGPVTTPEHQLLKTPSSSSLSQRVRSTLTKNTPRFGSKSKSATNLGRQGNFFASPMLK

[8] = cells; format: functional, cell-based
[9] = cells; format: functional, cell-based; remark: listed apart in the source
[10] = biological target: T3, Corticotropin-releasing factor receptor 2/Corticotropin-releasing factor-binding protein (Homo sapiens, UniProt P24387+Q13324); assay: activators of CRF receptor 2 with binding protein – uHTS hits, confirmation (AID 602473); format: functional; conditions: read-out: EC50_Mean
T3 sequence (Q13324 whole entry): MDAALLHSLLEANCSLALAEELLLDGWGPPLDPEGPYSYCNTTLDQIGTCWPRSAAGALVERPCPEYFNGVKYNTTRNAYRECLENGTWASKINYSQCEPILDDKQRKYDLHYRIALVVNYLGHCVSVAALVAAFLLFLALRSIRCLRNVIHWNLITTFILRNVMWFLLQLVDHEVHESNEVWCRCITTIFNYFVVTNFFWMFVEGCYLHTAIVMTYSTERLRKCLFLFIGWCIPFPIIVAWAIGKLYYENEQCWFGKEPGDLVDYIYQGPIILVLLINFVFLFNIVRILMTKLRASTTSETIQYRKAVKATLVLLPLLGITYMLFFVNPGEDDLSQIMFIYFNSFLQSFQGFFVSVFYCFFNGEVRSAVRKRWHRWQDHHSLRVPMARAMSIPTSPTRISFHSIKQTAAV
T3 sequence (P24387 whole entry): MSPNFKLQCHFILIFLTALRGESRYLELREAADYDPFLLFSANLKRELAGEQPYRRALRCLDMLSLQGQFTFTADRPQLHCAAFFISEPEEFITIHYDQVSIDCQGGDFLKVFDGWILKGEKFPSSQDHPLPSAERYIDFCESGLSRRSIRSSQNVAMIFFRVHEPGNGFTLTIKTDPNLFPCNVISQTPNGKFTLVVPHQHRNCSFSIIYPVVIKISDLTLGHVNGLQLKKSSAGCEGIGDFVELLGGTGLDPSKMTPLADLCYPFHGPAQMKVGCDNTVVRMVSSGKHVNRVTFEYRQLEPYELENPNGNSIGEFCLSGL

[11] = biological target: Cytochrome P450 2C19 (Homo sapiens, UniProt P33261); assay: Cytochrome panel assay with activity outcomes. Panel member name: p450-cyp2c19 Compounds with AC50 equal or less than 10 uM are considered active; format: functional; conditions: read-out: AC50
Cytochrome P450 2C19, sequence (P33261 whole entry): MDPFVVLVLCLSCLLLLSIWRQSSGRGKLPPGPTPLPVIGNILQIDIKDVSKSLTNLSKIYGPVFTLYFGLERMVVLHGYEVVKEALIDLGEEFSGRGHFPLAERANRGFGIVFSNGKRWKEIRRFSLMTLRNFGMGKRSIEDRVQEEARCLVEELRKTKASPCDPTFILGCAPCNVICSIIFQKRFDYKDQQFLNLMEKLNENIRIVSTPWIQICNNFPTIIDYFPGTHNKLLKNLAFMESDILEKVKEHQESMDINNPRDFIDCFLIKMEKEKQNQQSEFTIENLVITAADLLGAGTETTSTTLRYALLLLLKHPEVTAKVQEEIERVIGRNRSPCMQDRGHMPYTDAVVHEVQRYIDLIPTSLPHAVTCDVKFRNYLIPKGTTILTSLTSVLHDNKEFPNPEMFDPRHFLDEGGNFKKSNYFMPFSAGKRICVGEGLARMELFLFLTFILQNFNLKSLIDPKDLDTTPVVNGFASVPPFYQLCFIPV

[12] = Luminescence Cell-Based Dose Confirmation HTS to Identify Activators of 5'UTR Stem-Loop Driven Alpha-Synuclein mRNA Translation in H4 Neuroglioblastoma Cells. [Related pubchem assays: 1829 (Project Summary), 1814 (Primary HTS)]; format: functional
[13] = Luminescence Cell-Based Dose Response HTS to Identify Activators of Luciferase Translation or Activity in H4 […] Cells. [Related pubchem assays: 1829 (Project Summary), 1814 (Primary HTS)]; format: functional
[14] = system: H4; assay: Luminescence Cell-Based Dose Response HTS to Identify Activators of 5'UTR Stem-Loop Driven Prion Protein mRNA Translation in H4 Neuroglioblastoma Cells. [Related pubchem assays: 1829 (Project Summary), 1814 (Primary HTS)]; format: functional; conditions: Homo sapiens
[15] = system: Streptococcus sp. 'group A'; assay: growth inhibition of control SK(-) GAS strain, dose response, counter-screen for streptokinase expression inhibitor project, luminescence, kanamycin, BacTiterGlo, confirmation (AID 1900); format: functional, organism-based; conditions: Streptococcus sp. 'group A'
[16] = biological target: T4, Streptokinase A (Streptococcus pyogenes serotype M1, UniProt P10520); assay: S. pyogenes streptokinase expression inhibitors, potency, dose response, plasminogen activation absorbance, OD405 (AID 1914); format: functional, Streptococcus pyogenes M1 GAS;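 note: secreted streptokinase activity via plasminogen activation per viability signal from cell pellet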
T4 sequence (P10520 whole entry): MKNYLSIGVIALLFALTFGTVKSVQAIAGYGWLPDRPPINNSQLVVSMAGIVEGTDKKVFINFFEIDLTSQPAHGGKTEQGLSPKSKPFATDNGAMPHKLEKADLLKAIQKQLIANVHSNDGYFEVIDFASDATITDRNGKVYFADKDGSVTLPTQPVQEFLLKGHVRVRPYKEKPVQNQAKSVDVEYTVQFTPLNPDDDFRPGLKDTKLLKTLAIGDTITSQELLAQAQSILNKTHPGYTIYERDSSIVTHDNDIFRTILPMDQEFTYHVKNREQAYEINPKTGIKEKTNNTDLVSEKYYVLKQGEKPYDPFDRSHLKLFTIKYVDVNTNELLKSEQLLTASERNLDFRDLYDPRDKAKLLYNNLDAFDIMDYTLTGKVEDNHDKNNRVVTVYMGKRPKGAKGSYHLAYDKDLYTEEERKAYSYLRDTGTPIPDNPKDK

[17] = system: Streptococcus; assay: Group A Streptococcus viability loss, dose response, counter-screen for streptokinase expression inhibitor project, luminescence, BacTiterGlo (AID 1915); format: functional, organism-based; conditions: Streptococcus;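 note: potency for reduction of bacterial viability or growth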

## Cc1ccc2c(c1)NCC(C(=O)NC1CCCCC1)O2 (stereo not given)
[1]
  AC50: 11.2 µM (inconclusive)
[2]
  AC50: 31.6 µM (inconclusive)
[3]
  AC50: 39.8 µM (inconclusive)

## NC(CCCCc1ccccc1)c1cccc2ccccc12 (stereo not given)
[4]
  EC50: > 112 µM (not active)
[5]
  EC50: 24.6 µM (active)

## COc1ccc(-c2noc(CCCC(=O)NCCc3ccccc3)n2)cc1OC
[6]
  AC50: 22.4 µM (inconclusive)
[1]
  AC50: 15.8 µM (inconclusive)
[3]
  AC50: 4.47 µM (inconclusive)

## Cc1c(NC(=O)CN2CC(C)OC(C)C2)c(=O)n(-c2ccccc2)n1C (stereo not given)
[7]
  IC50: 83.1 µM (active)

## CCCC(=O)C1=C(N2CCCCC2)CC(C)(C)C(C(=O)OC)C1=O (stereo not given)
[4]
  EC50: > 112 µM (not active)
[5]
  EC50: > 112 µM (not active)

## C=CCOc1ccc(/C=C2\SC(N)=NC2=O)cc1OC
[8]
  EC50: > 350 µM (not active)
[9]
  EC50: > 350 µM (not active)

## Cc1ccc2cccc(S(=O)(=O)N3CCCc4ccccc43)c2n1
[4]
  EC50: 34 µM (active)
[5]
  EC50: 15.8 µM (active)
[10]
  EC50: 11.9 µM (active)

## O=[N+]([O-])c1ccc(/N=C/c2ccc(Br)c([N+](=O)[O-])c2)cc1
[8]
  EC50: > 350 µM (not active)
[9]
  EC50: > 350 µM (not active)

## Cc1nc2c(ccc3nc(NC(=O)c4ccc(S(=O)(=O)N(C)C)cc4)sc32)s1
[11]
  AC50: 7.94 µM (inconclusive)
[1]
  AC50: 3.16 µM (inconclusive)
[2]
  AC50: 3.55 µM (inconclusive)
[3]
  AC50: 0.794 µM (inconclusive)

## Cn1c(CCNC(=O)c2ccco2)nc2cc(NC(=O)C3CCCCC3)ccc21
[8]
  EC50: > 350 µM (not active)
[9]
  EC50: 97.8 µM (active)

## Cc1nc([N+](=O)[O-])c(N2CCN(C)CC2)n1Cc1ccccc1
[6]
  AC50: 35.5 µM (inconclusive)
[3]
  AC50: 39.8 µM (inconclusive)

## CCOC(=O)C1CCCN(C(=O)c2ccc3oc(Cc4ccccc4)nc3c2)C1 (stereo not given)
[12]
  EC50: 13.9 µM (active)
[13]
  EC50: 16.2 µM (active)
[14]
  EC50: 36.4 µM (active)
[4]
  EC50: > 112 µM (not active)
[5]
  EC50: > 112 µM (not active)

## CN(C)S(=O)(=O)c1ccc(Cl)c(NC(=O)COc2ccccc2[N+](=O)[O-])c1
[4]
  EC50: > 112 µM (not active)
[5]
  EC50: > 112 µM (not active)

## O=C(C1CCCN(Cc2cccnc2)C1)N1CCCCC1 (stereo not given)
[7]
  IC50: 74 µM (active)

## CCC1(c2ccccc2)NC(=O)N(CC(=O)Nc2ccc(N3CCCC3)cc2C)C1=O (stereo not given)
[7]
  IC50: 112 µM (active)

## CC(=O)c1cc(NC(=O)c2ccc(C)cc2)c(=O)oc1/C=C/N(C)C
[10]
  EC50: 6.73 µM (active)

## CC(=O)Nc1ccc(CN2CCCC(CO)(Cc3cccc(Cl)c3)C2)cc1 (stereo not given)
[10]
  EC50: > 53 µM (inactive)

## COc1ccccc1OCc1nnc(SCC(=O)NCc2ccco2)n1-c1ccccc1
[8]
  EC50: > 350 µM (not active)
[9]
  EC50: > 350 µM (not active)

## Cc1ccc2nc3c(O)n(CC(=O)NCCCN(C)Cc4ccccc4)ncc-3c2c1
[8]
  EC50: > 350 µM (not active)
[9]
  EC50: > 350 µM (not active)

## COc1ccc(S(=O)(=O)N(Cc2cccnc2)Cc2cc3ccccc3nc2O)cc1
[4]
  EC50: > 112 µM (not active)
[5]
  EC50: > 112 µM (not active)

## COc1ncnc2sc(-c3ccccc3)cc12
[4]
  EC50: 2.4 µM (active)
[5]
  EC50: 6.33 µM (active)

## O=C(c1cc(C2CC2)nn1-c1ccccc1)N1CCN(c2ccc(O)cc2)CC1
[7]
  IC50: 37.9 µM (active)

## O=C(/C=C/c1cn(-c2ccccc2)nc1-c1ccccc1)Nc1ccc(C(=O)O)cc1
[15]
  EC50: 6.15 µM (active)
[8]
  EC50: > 350 µM (not active)
[16]
  EC50: > 150 µM (not active)
[9]
  EC50: 24.8 µM (active)
[17]
  EC50: 15.5 µM (active)

## Cc1ccc(OCCCN2CCCC2)c(C)c1
[7]
  IC50: 105 µM (active)

## COC(=O)Cn1/c(=N/C(=O)CSC(C)=O)sc2ccccc21
[4]
  EC50: > 112 µM (not active)
[5]
  EC50: > 112 µM (not active)

## O=C(NC(=S)Nc1cccc2c(O)cccc12)c1ccco1
[7]
  IC50: 32.3 µM (active)

## c1cncc(-c2nnc3n2C2(CCCCC2)Cc2ccccc2-3)c1
[11]
  AC50: 44.7 µM (inconclusive)
[1]
  AC50: 39.8 µM (inconclusive)
[3]
  AC50: 31.6 µM (inconclusive)

## C=CCN1C(=O)/C(=C2/Sc3ccccc3N2C)S/C1=N\c1c(C)n[nH]c1C
[4]
  EC50: > 112 µM (not active)
[5]
  EC50: 17.5 µM (active)

## CCOC(=O)c1cc2c(=O)n3ccccc3nc2n(CCOC)/c1=N\C(=O)C(C)(C)C
[11]
  AC50: 20 µM (inconclusive)
[2]
  AC50: 31.6 µM (inconclusive)
[3]
  AC50: 17.8 µM (inconclusive)

## CC(C)COc1ccc(N)cc1OCC(C)C
[7]
  IC50: 55.3 µM (active)

## CC1(C)C[C@H](O)[C@@]23C[C@@H](OC2=O)[C@]2(C)C(=CCC4[C@@]5(C)CC[C@H](O)C(C)(C)C5CC[C@]42C)[C@@H]3C1 (stereo not given in full)
[10]
  EC50: 5.32 µM (active)
